Source: article PMC8360061, “Search for the Active Ingredients from a 2‐Aminothiazole DMSO Stock Solution with Antimalarial Activity” (Chemmedchem, 2021)
Read-outs that look alike come from different tables or passages of the source.

Legend:
[1] = test system: Plasmodium falciparum drug-sensitive NF54; test: Antimalarial assay, [3H]hypoxanthine incorporation; type: cell-based; settings: Plasmodium falciparum
Experimental: (§1) Due to the nature of the study, some decomposition samples w ere only tested once and thus, for some formal standard error, […]
For the final purified compounds, replicates were measured and standard deviation was calculated at least from two replicates.
1.2 General Procedure for Antimalarial Assay
Plasmodium falciparum drug-sensitive NF54 (airport strain from The Netherlands, provided by F. Hoffmann-La Roche Ltd) was cultivated in a variation of the medium consisting of RPMI 1640 supplemented with 0.5% ALBUMAX® II, 25 mM Hepes, 25 mM NaHCO3 (pH 7.3), 0.36 mM hypoxanthine, and 100 μg/mL neomycin, as previously described.[4,5] Human erythrocytes served as host cells.
Cultures were maintained in an atmosphere of 3% O2, 4% CO2, and 93% N2 in humidified modular chambers at 37 °C. Compounds were dissolved in MeOH (10 mM), diluted in hypoxanthine-free culture medium and titrated in duplicates over a 64-fold range in 96 well plates. Infected erythrocytes (1.25% final hematocrit and 0.3% final parasitemia) were added into the wells. After 48 h incubation, 0.25 μCi of [3H]hypoxanthine was added per well and plates were incubated for an additional 24 h. Parasites were harvested onto glass-fiber filters and radioactivity was counted using a Betaplate liquid scintillation counter (Wallac, Zurich). Chloroquine […]
The results were recorded and expressed as a percentage of the untreated controls. Fifty percent inhibitory concentrations (IC50) were estimated by linear interpolation.[6] […]

[2] = biological target: PfIspE (Plasmodium falciparum, UniProt Q8I470); test: PfIspE enzymatic assay (coupled to PK/LDH, NADH oxidation at 340 nm); type: biochemical
Sequence of PfIspE (Q8I470 entry or part of it): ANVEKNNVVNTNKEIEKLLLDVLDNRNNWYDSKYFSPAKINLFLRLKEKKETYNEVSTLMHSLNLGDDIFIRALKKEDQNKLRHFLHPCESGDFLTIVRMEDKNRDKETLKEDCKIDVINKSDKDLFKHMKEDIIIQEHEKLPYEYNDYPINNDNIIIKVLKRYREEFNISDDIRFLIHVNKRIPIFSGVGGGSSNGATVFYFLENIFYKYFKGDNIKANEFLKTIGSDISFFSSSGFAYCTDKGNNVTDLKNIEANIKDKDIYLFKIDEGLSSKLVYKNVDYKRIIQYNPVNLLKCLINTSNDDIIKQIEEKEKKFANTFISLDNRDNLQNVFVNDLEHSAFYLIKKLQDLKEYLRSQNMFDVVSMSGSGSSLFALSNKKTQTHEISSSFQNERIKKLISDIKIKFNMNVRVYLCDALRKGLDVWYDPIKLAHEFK
Experimental: (§2) Firstly, we performed a temperature‐dependent decomposition study of compound 1 at 10 mM concentration in DMSO at room temperature (RT), +4 °C and −20 °C (SI, Section 2.3). […] Besides visual inspection of the colour changes of the test sample (see Table 2), the decomposition was monitored by HRMS and NMR spectroscopy. […] Furthermore, all three samples were tested for their inhibitory activity against PfIspE after the incubation period. […] In the IspE assay, the activity of the target enzyme is coupled to the oxidation of NADH (which can be followed spectrophotometrically at 340 nm) via a cascade of the auxiliary enzymes pyruvate kinase and lactate dehydrogenase (PK/LDH).[10] […] Three samples of compound 1 were tested in PK/LDH assay (Table 2).
(§3) Another approach to address this issue is to perform the IspE assay with one or several orthologues of PfIspE. […] The IspE assay setup was identical for both Pf and EcIspE orthologs except for the target enzyme used. One of the setup requirements was that the enzymatic activity of the auxiliary enzymes PK/LDH exceeded the activity of the target enzyme IspE not less than a factor of ten.[10] We investigated, if the inhibition of the auxiliary enzymes may substantially influence the IC50 values obtained from the coupled IspE assay.
(§4) 1.1 General Procedure for Enzymatic Assay
(§5) The cloning, expression and purification of Plasmodium falciparum[1] and Escherichia coli[2,3] and their subsequent assays followed the previously reported procedures .[1] In some specified cases, the tested compound was dissolved in methanol or acetonitrile for the assay .
as §1
(§6) For the final purified compounds, replicates were measured and standard deviation was calculated at least from two replicates. […]
(§7) 2.) Decomposition Study Procedure
(§8) All reagents and solvents were of commercial quality and used without further purification.

[3] = Decomposition study of stock solutions (HRMS, NMR); type: physicochemical; settings: 10 mM DMSO stock at RT, after one day
Experimental: Firstly, we performed a temperature‐dependent decomposition study of compound 1 at 10 mM concentration in DMSO at room temperature (RT), +4 °C and −20 °C (SI, Section 2.3). After seven days, 64 % of the sample stored at RT had decomposed (SI, Table S1). Besides visual inspection of the colour changes of the test sample (see Table 2), the decomposition was monitored by HRMS and NMR spectroscopy. […] Furthermore, all three samples were tested for their inhibitory activity against PfIspE after the incubation period. […] This fact correlated with the degree of chemical transformation of compound 1 (Table S1). In the IspE assay, the activity of the target enzyme is coupled to the oxidation of NADH (which can be followed spectrophotometrically at 340 nm) via a cascade of the auxiliary enzymes pyruvate kinase and lactate dehydrogenase (PK/LDH).[10] Therefore, we next confirmed, whether the effects observed in the IspE assay are due to inhibition of the target enzyme or of the auxiliary enzymes. Three samples of compound 1 were tested in PK/LDH assay (Table 2).
Secondly, we analysed if spontaneous chemical transformation of compound 1 may depend on the solvent used for the preparation of its stock solutions. We incubated 10 mM stock preparations of compound 1 in DMSO, acetonitrile (ACN) and methanol (MeOH) at RT. Aliquots were taken during 16 days of incubation and tested against the enzyme PfIspE (Table 3). […] For further decomposition incubation of compound 1, only DMSO was used as solvent.
2.3 Temperature-Dependent Study
Compound 1 was dissolved in DMSO to afford 10 mM stock solution, in the scale of 3.65 mg in 1 mL. Three aliquots were prepared and one each was stored inside a light -protecting box at different temperatures: room temperature (RT), +4 °C and –20 °C. Samples were only taken to RT for the minimum time required for sampling. Samples were further d iluted with acetonitrile to 10 µM (1:1000) for HRMS analysis. For calibration, a fresh stock solution of the compound 1 was prepared shortly before the analysis. The concentration range used for the calibration was from 10 µM to 20 nM, including 10 samples with 1:1 dilutions starting from the highest concentration (Appendix I). In all of the calibration points and samples, diphenhydramine ( m/z: 256.16907 [M+H]+) was included as an internal standard at the concentration of 500 nM. The results were analysed using Thermo Xcalibur Quan Browser. Similarly, three NMR samples of compound 1 were prepared in DMSO-d6 and each stored at different temperatures; RT, +4 °C and –20 °C, (Figure S8).
Table S1. Summary of the decomposition of compound 1 at different temperatures with the corresponding enzymatic activities measured after three months.
The Percentage of Compound 1 Left After Degradation after 3 months of decomposition[b] Temperature Day 7 1 month 2 months PfIspE IC50 EcIspE IC50 PK/LDH IC50 […]
[a] [b] Errors given as formal standard error. n.d.: not determined, PK/LDH: pyruvate kinase and lactate dehydrogenase, Pf: Plasmodium falciparum, Ec: Escherichia coli.
Figure S7. The HRMS recorded for the samples submitted to the enzyme assay after 3 months of decomposition with the corresponding colour differences. […]
2.4 Solvent-Dependent Study
As in the Section 2.3, stock solutions of compound 1 were prepared in DMSO, ACN and MeOH and stored at RT for 16 days in a box protected from light . Samples were collected during this time and the enzymatic activity was analysed for them as in main text, Table […]
compound 1 for ACN or MeOH was detectible (Figures S11–12). Similarly, the old samples of compound 1 used for enzyme and cell assays were analysed with HRMS (Figure S13). Additionally, NMR sample in MeOH was prepared and measured over time while stored at RT. As a follow-up experiment, the stability of compound 1 was determined for its 10 mM stock solution in Tris-HCl (pH 7.6) with and without 5% DMSO and Cyrene™ with HRMS (Figure S16–18). […]

[4] = biological target: T1, EcIspE (Escherichia coli, UniProt P62615); test: EcIspE enzymatic assay (coupled to PK/LDH); type: biochemical; settings: fractions of second purification
T1 construct: made in house
T1 sequence (P62615 whole entry): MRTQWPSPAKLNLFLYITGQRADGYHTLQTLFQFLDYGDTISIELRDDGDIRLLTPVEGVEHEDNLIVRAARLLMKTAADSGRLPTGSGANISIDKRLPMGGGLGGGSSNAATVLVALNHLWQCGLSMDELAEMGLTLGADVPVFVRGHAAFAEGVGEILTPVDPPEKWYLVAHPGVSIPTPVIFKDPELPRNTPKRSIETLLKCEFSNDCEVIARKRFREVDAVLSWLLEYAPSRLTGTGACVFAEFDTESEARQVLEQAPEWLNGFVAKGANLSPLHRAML
Excerpt: as §3, §4, §5, §1, §6, §7, §8
Low resolution mass analytics and purity controls were carried out using an Ultimate 3000-ISQ liquid-chromatography mass spectrometry (LCMS) system (Thermo Fisher […]

[5] = biological target: PK/LDH (pyruvate kinase and lactate dehydrogenase); test: PK/LDH auxiliary enzyme assay; type: biochemical; settings: SFC-separated compound, dissolved in methanol shortly before the assay
Experimental: as §2, §4, §5, §1, §6, §7, §8
Low resolution mass analytics and purity controls were carried out using an Ultimate 3000-ISQ liquid-chromatography mass spectrometry (LCMS) system (Thermo Fisher Scientific, Dreieich, Germany) consisting of a Dionex UltiMate pump, an autosampler, DAD detector and an ESI quadrupole mass spectrometer. NMR spectra were recorded on a Bruker AV 500 or Ascend 700 (1H, 500 MHz or 700 MHz; 13C, 126 MHz or 175 MHz; 19F, 470 MHz) spectrometer. All spectra were measured in DMSO -d6, methanol-d4, acetone-d6 or acetonitrile-d3 to which reported

[6] = fractions of second purification (DMSO, RT, five days), dissolved in ACN
[7] = fractions of second purification (DMSO, RT, five days), dissolved in MeOH

Row | Compound | IC50 [2, 6] | IC50 [2, 7] | decomposition in DMSO at RT: dimerisation (HRMS, in words) [3] | IC50 ([4]; dissolved in ACN) | IC50 ([4]; dissolved in MeOH) | other results
1 | CCN(CC)CCCC(C)Nc1ccnc2cc(Cl)ccc12 (centres unmarked) [Chloroquine, reference compound] |  |  |  |  |  | IC50 ([1]; NF54, read-out: PfNF54 IC50): 3.1 ± 0.8 ng/mL
2 | CCn1c(C)cc(-c2csc(Nc3ccccc3OC)n2)c1C [Compound 2, 4-(1-Ethyl-2,5-dimethyl-1H-pyrrol-3-yl)-N-(2-methoxyphenyl)thiazol-2-amine] | > 1530 µM | > 1530 µM | dimerising mainly into the predicted N−N dimers | > 1530 µM | > 1530 µM | IC50 ([2]; first screening, from a single measurement, not reproducible later): 191 µM; IC50 ([2]; fresh batch, freshly prepared stock solution): > 500 µM
3 | C=CCn1c(C)cc(-c2csc(Nc3ccccc3C(C)C)n2)c1C [Compound 3, 4-(1-Allyl-2,5-dimethyl-1H-pyrrol-3-yl)-N-(2-isopropylphenyl)thiazol-2-amine] | > 1420 µM | > 1420 µM | dimerising mainly into the predicted N−N dimers | > 1420 µM | > 1420 µM | 
4 | Cc1cc(-c2csc(Nc3ccccc3C(F)(F)F)n2)c(C)n1CC1CCCO1 (centres unmarked) [Compound 4, 4-(2,5-Dimethyl-1-((tetrahydrofuran-2-yl)methyl)-1H-pyrrol-3-yl)-N-(2-(trifluoromethyl)phenyl)thiazol-2-amine] | > 1190 µM | 112 µM | no dimerisation | > 1190 µM | 292 µM | IC50 ([2]; fractions of first prep. HPLC purification (DMSO, RT, 2.5 weeks), dissolved in DMSO as 1 mg/mL): > 1190 µM
5 | CCn1c(C)cc(-c2csc(N(c3ccccc3C(F)(F)F)N(C3=NC(=C4C=C(C)[N+](CC)=C4C)CS3)c3ccccc3C(F)(F)F)n2)c1C [DP2] |  |  |  |  |  | IC50 ([2]; SFC-separated compound, dissolved in methanol shortly before the assay): 59 ± 4 µM; IC50 ([1]; NF54, 72 h, SFC-separated compound, dissolved in methanol shortly before the assay, 72 hours, highest concentration tested 20 μM, read-out: PfNF54 IC50): 2.1 ± 0.2 µM; IC50 [5]: 37 ± 4 µM
6 | C[C@H]1[C@H](OC(=O)CCC(=O)O)O[C@@H]2O[C@@]3(C)CC[C@H]4[C@H](C)CC[C@@H]1[C@@]24OO3 [artesunate, reference compound] |  |  |  |  |  | IC50 ([1]; NF54, controls of the antimalarial assay, read-out: PfNF54 IC50): 4 ± 1.7 ng/mL
